# Source: publication PMC6435540, “LipG a bifunctional phospholipase/thioesterase involved in mycobacterial envelope remodeling” (Bioscience Reports, 2018)
# “Also recorded” adds a separate entry of the source. Where two headings read alike, the source gives them in different places.
# Assays:
# [1] = system: M. smegmatis lipGMS::Hyg CompMTB; assay: microbe, parasite or virus in culture; assay type: cell-based; details: for Fold change compared with WT: MIC50 of lipGMS::Hyg CompMTB strain versus WT; for MIC50: Mycolicibacterium smegmatis
# [2] = system: M. smegmatis lipGMS::Hyg Comp; assay: microbe, parasite or virus in culture; assay type: cell-based; details: for Fold change compared with WT: MIC50 of lipGMS::Hyg Comp strain versus WT; for MIC50: Mycolicibacterium smegmatis
# M. smegmatis WT = assay: REMA susceptibility testing, WT strain
# Experimental: Susceptibility testing was performed using the Middlebrook 7H9 broth microdilution method. All assays for each strain were carried out at least in triplicate. MICs against the various M. smegmatis bacterial strains were determined in 96-well flat-bottom Nunclon Delta Surface microplates with lid (Thermo Fisher Scientific) using REMA method [59]. Briefly, log-phase bacteria were diluted to a cell density of 5 × 10^6 cells/ml in 7H9-S medium. […] Growth controls containing no inhibitor (i.e., bacteria only), inhibition controls containing 50 μg/ml kanamycin and sterility controls (i.e. medium only) without inoculation were also included. Plates were incubated at 37°C in a humidity chamber [60] to prevent evaporation for 3–5 days. Then, 20 µl of a 0.02% (w/v) resazurin solution was added to each well, and the plates were incubated at 37°C for color change from blue to pink or violet and for a reading of fluorescence units (FU). Fluorescence corresponding to the resazurin reduction to its metabolite resorufin was quantitated using a Tecan Spark 10M multimode microplate reader (Tecan Group Ltd, France) with excitation at 530 nm and emission at 590 nm. Fluorometric MICs were determined by fitting the RFU% sigmoidal dose–response curves [28, 29] in Kaleidagraph 4.2 software (Synergy Software). MIC values determined as the lowest compound concentrations inhibiting 50% of growth were defined as the MIC50.
# M. smegmatis lipGMS::Hyg = assay: microbe, parasite or virus in culture; assay type: cell-based; details: for MIC50: Mycolicibacterium smegmatis
# [3] = system: intramacrophagic M. tuberculosis; parameters: method as in PMID 28924204, PMID 30292819; details: infected macrophages; ref [28],[42]; cited from earlier work
# [4] = system: extracellular M. tuberculosis; details: cited from earlier work; for Activity against extracellular M. tuberculosis (in words): growth in vitro, ref [28],[42]; for Activity against extracellularly growing M. tuberculosis (in words): ref [27],[28]
# rLipGMTB = assay: Inhibition of rLipGMTB, enzyme-inhibitor pre-incubation method, residual activity on pNP-C6; assay type: biochemical; details: for xI50: inhibitor molar excess leading to 50% enzyme inhibition; for xI50 / % inhibition xI = 4 / % inhibition xI = 100: 30-min incubation at 25°C, substrate pNP-C6; for % inhibition xI = 4: inhibitor molar excess xI = 4; for % inhibition xI = 100: inhibitor molar excess xI = 100; for Inhibitory effect on rLipGMTB (in words): pure rLipGMTB, molar excess up to xI = 100
# [5] = Mycolicibacterium smegmatis, WT strain, REMA, concentration leading to 50% growth inhibition
# [6] = WT strain, REMA, concentration leading to 50% growth inhibition
SMILES,Fold change compared with WT [1],MIC50 [1],Fold change compared with WT [2],MIC50 [2],MIC50 (M. smegmatis WT; [5]),MIC50 (M. smegmatis WT; [6]),MIC50 (M. smegmatis lipGMS::Hyg),Activity against intramacrophagic M. tuberculosis (in words) [3],Activity against extracellular M. tuberculosis (in words) [4],Activity against extracellularly growing M. tuberculosis (in words) [4],Fold change compared with WT (M. smegmatis lipGMS::Hyg; MIC50 of lipGMS::Hyg strain versus WT),xI50 (rLipGMTB),% inhibition xI = 4 (rLipGMTB),% inhibition xI = 100 (rLipGMTB),Inhibitory effect on rLipGMTB (in words) (rLipGMTB),"MIC50 ([1]; lipGMS::Hyg CompMTB strain, REMA, concentration leading to 50% growth inhibition, read-out: MIC50)","MIC50 ([2]; lipGMS::Hyg Comp strain, REMA, concentration leading to 50% growth inhibition, read-out: MIC50)",MIC50 (M. smegmatis WT; Mycolicibacterium smegmatis)
"NNC(=O)c1ccncc1 [INH, isoniazid]",×1.3,1.9 µg/mL,×1.2,1.8 µg/mL,0.76 µg/mL,1.4 µg/mL,2.9 µg/mL,–,–,–,–,–,–,–,–,–,–,–
CCCCCCOc1nn(-c2ccccc2)c(=O)o1 [HPOX],–,–,~1.5 ×,12.2 µg/mL,8.4 µg/mL,–,18.4 µg/mL,no activity,efficiently block M. tuberculosis growth in vitro,only active against extracellularly growing M. tuberculosis strain,2.2 ×,2.9,58.5 ± 1.4%,93.8 ± 5.7%,strong inhibitory effect,–,–,–
CCCCCCOc1nn(-c2ccc(Oc3ccccc3)cc2)c(=O)o1 [HpPPOX],–,–,–,–,–,–,–,active on infected macrophages only,–,–,–,3.5,61.8 ± 4.7%,73.8 ± 1.0%,–,–,–,–
CCCCCCCCCCC1CCP(=O)(OC)OC(C)=C1C(=O)OC (stereo not drawn) [CyC7β],–,–,–,–,–,–,–,strong activity,strong activity,–,–,48.1,7.9 ± 0.72%,57.6 ± 2.0%,very weak inhibitory effects,–,–,–
CC(C)COc1nn(-c2ccc(Oc3ccccc3)cc2)c(=O)o1 [iBpPPOX],–,–,–,–,–,–,–,strong activity,strong activity,–,–,14.7,40.5 ± 3.1%,60.6 ± 0.22%,–,–,–,–
CCCCCCCCCCCCC1CCP(=O)(OC)OC(C)=C1C(=O)OC (stereo not drawn) [CyC8β],–,–,–,–,–,–,–,active on infected macrophages only,–,–,–,>200,3.2 ± 0.16%,32.0 ± 1.5%,very weak inhibitory effects,–,–,–
"CO[C@H]1/C=C/O[C@@]2(C)Oc3c(C)c(O)c4c(O)c(c(/C=N/N5CCN(C)CC5)c(O)c4c3C2=O)NC(=O)/C(C)=C\C=C\[C@H](C)[C@H](O)[C@@H](C)[C@@H](O)[C@@H](C)[C@H](OC(C)=O)[C@@H]1C [RIF, rifampicin]",×1.3,0.96 µg/mL,×1.2,0.89 µg/mL,1.4 µg/mL,0.76 µg/mL,3.3 µg/mL,–,–,–,–,–,–,–,–,–,–,–
CCCCCCCCCCC1CCP(=O)(OC)OC(C)=C1C(=O)OC (stereo not drawn) [CyC7α],–,–,–,–,–,–,–,active on infected macrophages only,–,–,–,5.0,47.4 ± 0.81%,81.4 ± 1.6%,strong dose-dependent inhibition,–,–,–
CCCCCCCCCCCCCCCCOP1(=O)OCCC(C(=O)OC)=C(C)O1 (stereo not shown) [CyC17],×1.1,–,–,–,–,–,9.6 µg/mL,no activity,efficiently block M. tuberculosis growth in vitro,only active against extracellularly growing M. tuberculosis strain,–,0.98,66.4 ± 4.5%,95.4 ± 2.6%,strong dose-dependent inhibition; also recorded: strong inhibitory effect,0.65 µg/mL,0.6 µg/mL,0.56 µg/mL
"CCCCCCCCCCC[C@@H](C[C@@H]1OC(=O)[C@H]1CCCCCC)OC(=O)[C@H](CC(C)C)NC=O [Orlistat, reference compound]",×1.6,1.6 µg/mL,×1.3,1.2 µg/mL,0.97 µg/mL,–,6.5 µg/mL,–,–,–,–,15.2,10.8 ± 0.17%,69.5 ± 5.3%,moderate inhibitory activity,–,–,–
COc1nn(-c2cccc(Oc3ccccc3)c2)c(=O)o1 [MmPPOX],–,–,–,–,–,–,–,–,–,–,–,3.1,54.1 ± 1.5%,82.0 ± 3.8%,–,–,–,–
